Source: patent USRE45907E1, “Functionalized stilbene derivatives as improved vascular targeting agents” (OXiGENE, Inc., priority 2001, dated 2016)
Structures can show the parent of a compound that is named as a salt. Where two headings read alike, the source gives them in different places.

How the values were obtained:
[1] = system: MHEC-5T hemangioendothelioma tumor; format: in vivo; settings: 100 mg/kg single i.p. dose, 24 hours post-treatment, SCID mice with MHEC5-T tumor
Method: The vascular effects of the following compounds were assessed in tumor-bearing mice using a fluorescent-bead assay. A MHEC-5T hemangioendothelioma tumor model was established by subcutaneous injection of 0.5×10^6 cultured MHEC5-T cells into the right flank of Fox Chase CB-17 SCID mice and allowed to grow to a size of 300 mm^3 before i.p. injection with a single dose of saline control or compound. At 24 hours post-treatment, mice were i.v. injected with 0.25 ml of diluted FluoSphere beads (1:6 in physiological saline) in the tail vein, and sacrificed after 3 minutes. Tumor cryosections at a thickness of 8 um were directly examined using quantitative fluorescent microscopy. For quantification, image analysis of 3 sections from three tumor treated in each group were examined and vascular shutdown was expressed a vessel area per tissue area (mm^2) in percentage of the control.

[2] = format: cell-based
Method: Exponentially growing were treated with the following compounds for 1 hour and 5 days. Insoluble compounds were formulated in a small amount (0.3%) of DMSO for biological evaluation. Cell viability was determined by the calorimetric MTT assay using 3(4,5-dimethylthiazol-2-yl)-2,5-diphenyl-2H-tetrazolium bromide according to well-established procedures (see Berridge, et al. (1996) for a general protocol of this type of assay).

tubulin = assay: Inhibition of tubulin polymerization; format: biochemical
human cancer cell lines = assay: MTT cytotoxicity of combretastatins and prodrugs (Table 1); format: cell-based
[3] = treated for 1 hour, read-out: IC50 @ 1 h
[4] = treated for 5 days, read-out: IC50 @ 5 days
[5] = 1 h, read-out: MTT Cytotoxicity (IC50) at 1 hour
[6] = 5 h, read-out: MTT Cytotoxicity (IC50) at 5 hours

Row | Compound | % Blood Flow Shutdown (100 mg/kg) [1] [%] | IC50 [2, 3] [µM] | IC50 [2, 4] [µM] | also measured
1 | 3′,5′-Tetrasodium Phosphate-3,4,4′,5-tetramethoxy-(Z)-stilbene [ZSB-2B] | 65 | 25 | 1 | 
2 | COc1ccc(/C=C\c2cc(OC)c(OC)c(OC)c2)c(O)c1O [CA-1, combretastatin A-1] |  |  |  | IC50 (tubulin): 2 to 4 µM; activity with tubulin (tubulin): active with tubulin; IC50 (human cancer cell lines; [5]): 10 µM; IC50 (human cancer cell lines; [6]): 0.05 µM
3 | COc1cc(/C=C\c2ccc(OC)c(OP(=O)(O)O)c2OP(=O)(O)O)cc(OC)c1OC [CA-1P] |  |  |  | IC50 (tubulin): > 40 µM; activity with tubulin (tubulin): not active with tubulin; IC50 (human cancer cell lines; [5]): 3.2 µM; IC50 (human cancer cell lines; [6]): 0.0046 µM
4 | COc1ccc(/C=C\c2cc(OC)c(OC)c(OC)c2)cc1O [CA-4, Combretastatin A-4] |  |  |  | IC50 (tubulin): […]; IC50 (human cancer cell lines; [5]): 0.1 µM; IC50 (human cancer cell lines; [6]): 0.05 µM
5 | COc1ccc(/C=C\c2cc(OC)c(OC)c(OC)c2)cc1OP(=O)(O)O [CA-4P] |  |  |  | IC50 (tubulin): > 40 µM; IC50 (human cancer cell lines; [5]): 0.8 µM; IC50 (human cancer cell lines; [6]): 0.002 µM
6 | COc1ccc(/C=C\c2cc(OC)c(OC)c(OC)c2)cc1OP(=O)(O)OC1CCCCC1 [Oxi-com191, CA4P Cyclohexane Ester, Ammonium Salt] |  | 35 | 0.13 | 
7 | COc1ccc(/C=C\c2cc(OC)c(OC)c(OC)c2)cc1OP(=O)(O)OC [Oxi-com209, CA-4P Methyl Ester, Ammonium Salt] |  | 38 | 0.07 | 
8 | COc1ccc(/C=C\c2cc(OC)c(OC)c(OC)c2)c(N)c1N [ZSB-3B, 2′,3′-Damino-3,4,4′,5-tetramethoxy-(Z)-stilbene] |  | 2.4 | 0.0043 | 
9 | COc1ccc(/C=C\c2cc(OC)c(OC)c(OC)c2)c(Br)c1O [ZSB-16, 2′-Bromo-3′-Hydroxy-3,4,4′,5-tetramethoxy-(Z)-stilbene] |  | 2 | 0.0067 | 
10 | COc1ccc(/C=C\c2cc(OC)c(OC)c(OC)c2)c(O)c1Br [ZSB-26A, 2′ Hydroxy-3′-bromo-3,4,4′,5-tetramethoxy-(Z)-stilbene] |  | 3.07 | 0.016 | 
11 | COc1cc(/C=C\c2ccc(OC)c(OP(=O)([O-])[O-])c2OC)cc(OC)c1OC.[Na+].[Na+] [ZSB-27B, 3′-Disodium Phosphate-3,3′,4,4′,5-pentamethoxy-(Z)-stilbene] | 41 |  |  | 
12 | COc1cc(/C=C\c2cc(OC)c(OC)c(OC)c2)c(I)cc1OP(=O)([O-])[O-].[Na+].[Na+] [ZSB-29B, 4′-Disodium Phosphate-2′-Iodo-3,4,5,5′-tetramethoxy-(Z)-stilbene] | 43 |  |  | 
13 | COc1cc(OP(=O)([O-])[O-])c(/C=C\c2cc(OC)c(OC)c(OC)c2)cc1OP(=O)([O-])[O-].[Na+].[Na+].[Na+].[Na+] [ZSB-33B, 2′,5′-Tetrasodium Diphosphate-3,4,4′,5-tetramethoxy-(Z)-stilbene] | 51 |  |  | 
14 | COc1ccc(/C=C\c2cc(OC)c(OC)c(OC)c2)c(N)c1 [ZSB-39B, 2′-Amino-3,4,4′,5-tetramethoxy-(Z)-stilbene] | 50 |  |  | 
15 | COc1ccc(/C=C\c2cc(OC)c(OC)c(OC)c2)c(F)c1O [ZSB-41A, 2′-Fluoro-3′-Hydroxy-3,4,4′,5-tetramethoxy-(Z)-stilbene] |  | 8 | 0.015 | 
16 | COc1cc(/C=C\c2cc(O)c(OC)c([N+](=O)[O-])c2)cc(OC)c1OC [ZSB-43, 3′-Hydroxy, 5′-Nitro-3,4,4′,5-tetramethoxy-(Z)-stilbene] |  | 8 | 1.3 | 
17 | COc1ccc(/C=C\c2cc(OC)c(OC)c(OC)c2)c(NC(=O)C(N)CO)c1 (centres unmarked) [ZSB-45, 2′serinamide-3,4,4′,5-tetramethoxy-(Z)-stilbene] | 43 | 10 | 0.05 | 
18 | COc1ccc(/C=C\c2cc(OC)c(OC)c(OC)c2)c(O)c1 [ZSB-46A, 2′-Hydroxy-3,4,4′,5-tetramethoxy-(Z)-stilbene] |  | 43 | 0.068 | 
19 | CA4P n-Octyl Ester, Ammonium Salt [Oxi-com210] | 89 |  |  | 
